# Results as given in publication PMC11477209, “Toxicological Evaluation of Kaempferol and Linearolactone as Treatments for Amoebic Liver Abscess Development in Mesocricetus auratus” (International Journal of Molecular Sciences, 2024).
# Assays:
# [1] = ALA hamsters
# [2] = system: E. histolytica trophozoites (virulent HM-1 strain); details: 48 h
# [3] = in vivo
# Procedure: After blood samples were obtained, the hamsters were sacrificed with a lethal dose of sodium pentobarbital, followed by a cervical fracture. They were mounted on a dissecting board for the necropsy. A complete mid-laparotomy was performed to remove the lungs, spleen, heart, liver, and kidneys. An excisional biopsy was performed to recover the ALA lesions for morphometric analysis. The organs and ALA lesions were rinsed with 1× PBS, weighed, and adherent tissue was removed. […] Later, the inclusion protocol was performed to obtain histological sections (3 μm thick) with a rotatory microtome (RM2125-RTS, Leica; Wetzlar, Germany). Tissue slices were stained with hematoxylin-eosin (Merck; Rahway, NJ, USA), mounted on coverslips with Entellan^TM-New (Merck; Rahway, NJ, USA), and observed with optical microscopy (Eclipse 80i, Nikon; Tokio, Japan).
# [4] = MTZ 0.16, KP 31.6, LL 15.6 μg/mL
smiles,measurement,setting,value
"C[C@]12C[C@H](c3ccoc3)OC(=O)[C@H]1CCC13COC(=O)C1=CC=C[C@H]32 (stereo partly drawn) [LL, (4S,7R,9R,10S)-7-(furan-3-yl)-9-methyl-6,16-dioxatetracyclo[8.7.0.01,14.04,9]heptadeca-11,13-diene-5,15-dione]",change in body weight compared with the control (disease-free) group,[1],−0.21%
same,Hamster weight,[1]; i.p. 4 days,93.4 ± 7.2 g
same,Survival rate,[1]; i.p. 4 days,100%
same,Toxicity signs,[1]; i.p. 4 days,None
same,biological activity symbol on IC50 HM-1,[2],+
same,IC50 HM-1,[2]; flow cytometry,< 7.8 µg/mL
same,apoptotic trophozoites,[2]; [4],4.3%
same,necrotic trophozoites,[2]; [4],90.1%
same,decrease of size and granularity of the cell population,"[2]; MTZ 0.16, KP 31.6, LL 15.6 μg/mL, vs Vh",66%
same,Heart largest diameter,[3],1.1 ± 0.07 cm
same,Heart weight,[3],0.38 ± 0.08 g
same,Kidneys largest diameter,[3],1.1 ± 0.08 cm
same,Kidneys weight,[3],0.49 ± 0.07 g
same,Liver largest diameter,[3],3.94 ± 0.16 cm
same,Liver weight,[3],5.5 ± 0.9 g
same,Lungs largest diameter,[3],2.4 ± 0.1 cm
same,Lungs weight,[3],0.74 ± 0.06 g
same,Spleen largest diameter,[3],3.4 ± 0.4 cm
same,Spleen weight,[3],0.26 ± 0.05 g
